In PubChem BioAssay AID1963971 (Molecular Pharmacology Branch, DTP, NCI, 2024):

Tested on: 953936-095-R-J2-PDC spheroids with HUVEC/MSC, viability
Experiment: Anticancer human tumor 953936-095-R-J2-PDC patient-derived cervical squamous cell carcinoma cell line growth inhibition [PI3K]
Conditions: for IC50: curve of first compound; for viability, T/C: stronger effect = lower value
In short: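 Combination activity was assessed by viability in multicellular tumor spheroids carrying HUVEC and MSC components. Agents were tested with PI3K inhibitors from a Cmax-based top dose (or 10 microM) downward in half-log increments.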

[1] = second compound 0.0316 µM, first compound 0.0316 µM
[2] = second compound 0.0316 µM, first compound 0.1 µM
[3] = second compound 0.0316 µM, first compound 0.316 µM
[4] = second compound 0.0316 µM, first compound 1 µM
[5] = second compound 0.0316 µM, first compound 3.16 µM
[6] = second compound 0.0316 µM, first compound 10 µM
[7] = second compound 0.1 µM, first compound 0.0316 µM
[8] = second compound 0.1 µM, first compound 0.1 µM
[9] = second compound 0.1 µM, first compound 0.316 µM
[10] = second compound 0.1 µM, first compound 1 µM
[11] = second compound 0.1 µM, first compound 3.16 µM
[12] = second compound 0.1 µM, first compound 10 µM
[13] = second compound 0.316 µM, first compound 0.0316 µM
[14] = second compound 0.316 µM, first compound 0.1 µM
[15] = second compound 0.316 µM, first compound 0.316 µM
[16] = second compound 0.316 µM, first compound 1 µM
[17] = second compound 0.316 µM, first compound 3.16 µM
[18] = second compound 0.316 µM, first compound 10 µM
[19] = second compound 1 µM, first compound 0.0316 µM
[20] = second compound 1 µM, first compound 0.1 µM
[21] = second compound 1 µM, first compound 0.316 µM
[22] = second compound 1 µM, first compound 1 µM
[23] = second compound 1 µM, first compound 3.16 µM
[24] = second compound 1 µM, first compound 10 µM
[25] = second compound 3.16 µM, first compound 0.0316 µM
[26] = second compound 3.16 µM, first compound 0.1 µM
[27] = second compound 3.16 µM, first compound 0.316 µM
[28] = second compound 3.16 µM, first compound 1 µM
[29] = second compound 3.16 µM, first compound 3.16 µM
[30] = second compound 3.16 µM, first compound 10 µM
[31] = second compound 10 µM, first compound 0.0316 µM
[32] = second compound 10 µM, first compound 0.1 µM
[33] = second compound 10 µM, first compound 0.316 µM
[34] = second compound 10 µM, first compound 1 µM
[35] = second compound 10 µM, first compound 3.16 µM
[36] = second compound 10 µM, first compound 10 µM
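Further: spheroids exposed to compounds for seven days before read-out.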

CC1(C)CCC(CN2CCN(c3ccc(C(=O)NS(=O)(=O)c4ccc(NCC5CCOCC5)c([N+](=O)[O-])c4)c(Oc4cnc5[nH]ccc5c4)c3)CC2)=C(c2ccc(Cl)cc2)C1 + Cc1nc(NC(=O)N2CCCC2C(N)=O)sc1-c1ccnc(C(C)(C)C(F)(F)F)c1
IC50 (second compound 0.0316 µM): 6.77 µM
IC50 (second compound 0.1 µM): 7.01 µM
IC50 (second compound 0.316 µM): 5.15 µM
IC50 (second compound 1 µM): < 0.0316 µM
IC50 (second compound 3.16 µM): < 0.0316 µM
IC50 (second compound 10 µM): < 0.0316 µM
viability, T/C [1]: 88.8%
viability, T/C [2]: 96.5%
viability, T/C [3]: 97.6%
viability, T/C [4]: 100%
viability, T/C [5]: 109%
viability, T/C [6]: 25.2%
viability, T/C [7]: 90.7%
viability, T/C [8]: 82.5%
viability, T/C [9]: 82.7%
viability, T/C [10]: 85.7%
viability, T/C [11]: 96%
viability, T/C [12]: 33.5%
viability, T/C [13]: 65.3%
viability, T/C [14]: 64.1%
viability, T/C [15]: 61.1%
viability, T/C [16]: 63.4%
viability, T/C [17]: 67.8%
viability, T/C [18]: 30.5%
viability, T/C [19]: 52.5%
viability, T/C [20]: 47.6%
viability, T/C [21]: 41.2%
viability, T/C [22]: 40.5%
viability, T/C [23]: 40%
viability, T/C [24]: 19.3%
viability, T/C [25]: 27.4%
viability, T/C [26]: 27.2%
viability, T/C [27]: 25.6%
viability, T/C [28]: 26.3%
viability, T/C [29]: 22.3%
viability, T/C [30]: 20.4%
viability, T/C [31]: 11.4%
viability, T/C [32]: 10.8%
viability, T/C [33]: 10.2%
viability, T/C [34]: 11.8%
viability, T/C [35]: 12.4%
viability, T/C [36]: 8.8%

CCCS(=O)(=O)Nc1ccc(F)c(C(=O)c2c[nH]c3ncc(-c4ccc(Cl)cc4)cc23)c1F + Cc1nc(NC(=O)N2CCCC2C(N)=O)sc1-c1ccnc(C(C)(C)C(F)(F)F)c1
IC50 (second compound 0.0316 µM): 5.03 µM
IC50 (second compound 0.1 µM): 4.88 µM
IC50 (second compound 0.316 µM): 4.28 µM
IC50 (second compound 1 µM): < 0.0316 µM
IC50 (second compound 3.16 µM): < 0.0316 µM
IC50 (second compound 10 µM): < 0.0316 µM
viability, T/C [1]: 90.7%
viability, T/C [2]: 95.1%
viability, T/C [3]: 95.8%
viability, T/C [4]: 99.2%
viability, T/C [5]: 83.2%
viability, T/C [6]: 0.75%
viability, T/C [7]: 82.6%
viability, T/C [8]: 88.3%
viability, T/C [9]: 86.1%
viability, T/C [10]: 92.9%
viability, T/C [11]: 80%
viability, T/C [12]: 0.68%
viability, T/C [13]: 64.6%
viability, T/C [14]: 65.1%
viability, T/C [15]: 66.9%
viability, T/C [16]: 73.8%
viability, T/C [17]: 68.2%
viability, T/C [18]: 0.57%
viability, T/C [19]: 46.6%
viability, T/C [20]: 45.9%
viability, T/C [21]: 47%
viability, T/C [22]: 50.2%
viability, T/C [23]: 37.3%
viability, T/C [24]: 0.59%
viability, T/C [25]: 26.6%
viability, T/C [26]: 26.2%
viability, T/C [27]: 27.5%
viability, T/C [28]: 25.5%
viability, T/C [29]: 20.2%
viability, T/C [30]: 1.4%
viability, T/C [31]: 11.7%
viability, T/C [32]: 12.8%
viability, T/C [33]: 13.7%
viability, T/C [34]: 14.2%
viability, T/C [35]: 9.62%
viability, T/C [36]: 0.42%

CNC(=O)c1ccc(N2C(=S)N(c3ccc(C#N)c(C(F)(F)F)c3)C(=O)C2(C)C)cc1F + Cc1nc(NC(=O)N2CCCC2C(N)=O)sc1-c1ccnc(C(C)(C)C(F)(F)F)c1
IC50 (second compound 0.0316 µM): > 10 µM
IC50 (second compound 0.1 µM): > 10 µM
IC50 (second compound 0.316 µM): > 10 µM
IC50 (second compound 1 µM): 0.053 µM
IC50 (second compound 3.16 µM): < 0.0316 µM
IC50 (second compound 10 µM): < 0.0316 µM
viability, T/C [1]: 85.4%
viability, T/C [2]: 92.7%
viability, T/C [3]: 108%
viability, T/C [4]: 105%
viability, T/C [5]: 83.5%
viability, T/C [6]: 79.7%
viability, T/C [7]: 81.2%
viability, T/C [8]: 93%
viability, T/C [9]: 78.3%
viability, T/C [10]: 76.9%
viability, T/C [11]: 74.7%
viability, T/C [12]: 73.9%
viability, T/C [13]: 64.1%
viability, T/C [14]: 65.9%
viability, T/C [15]: 65.3%
viability, T/C [16]: 59.9%
viability, T/C [17]: 62.8%
viability, T/C [18]: 54.3%
viability, T/C [19]: 54.1%
viability, T/C [20]: 44.2%
viability, T/C [21]: 44.3%
viability, T/C [22]: 48.6%
viability, T/C [23]: 41.4%
viability, T/C [24]: 38.1%
viability, T/C [25]: 26.6%
viability, T/C [26]: 29.8%
viability, T/C [27]: 24.4%
viability, T/C [28]: 25.5%
viability, T/C [29]: 30%
viability, T/C [30]: 24.8%
viability, T/C [31]: 12.2%
viability, T/C [32]: 11.2%
viability, T/C [33]: 12.1%
viability, T/C [34]: 11%
viability, T/C [35]: 11.6%
viability, T/C [36]: 10.7%
